# Data taken from patent US20230227398A1, “MESCALINE DERIVATIVES WITH MODIFIED ACTION” (Mind Medicine, Inc., priority 2021, published 2023).
# Entries after “also recorded” stand apart in the source; their conditions may differ.
# Experiments:
# [1] = Duration of action and potency of mescaline derivatives; parameters: species or system humans; conditions: in vivo
# Text: Together, the in vitro profiles of mescaline and its derivatives represented in FIG. 1 compared with that of psilocin and LSD indicate overall psychedelic properties of all compounds but also differences that likely manifest when used in humans. Accordingly, some mescaline derivatives will exert psychedelic acute effect profiles that are more beneficial to some patients including but not limited to: more overall positive effects, more or less perceptual effects, more emotional effects, less anxiety, less cardio-stimulant effects, less adverse effects, less nausea, longer and also shorter effects among other properties and compared to mescaline. Specifically, taken together the pharmacological data and structural specifics on the substances tested herein some compounds are of particular interest. FE and FP have a relatively short duration of action (<6 hours) compared with mescaline and potentially empathogenic MDMA-like effects.
# The compounds represented by FIG. 1 act with shorter, with similar or with longer duration of action in human in comparison to the original mescaline molecule. This is triggered by modification of the molecular structure in FIG. 1.
# [2] = biological target: 5-HT2A receptor (Homo sapiens, UniProt P28223); conditions: cited from earlier work
# [3] = biological target: D2 receptors (Homo sapiens, UniProt P14416); conditions: cited from earlier work
# [4] = biological target: 5-HT transporter (SERT) (Homo sapiens, UniProt P31645); conditions: cited from earlier work
# [5] = humans (Charalampous, 1966); cited from earlier work
# [6] = biological target: T1, serotonin 5-HT2A receptor (Homo sapiens, UniProt P28223); assay: 5-HT2A receptor binding (in vitro profiling at key targets)
# [7] = test system: monoamine transporters; assay: Inhibition of monoamine transport (in vitro profiling); format: biochemical
# Text: Activity of compounds at monoamine transporters are thought to mediate MDMA-like empathogenic effects (Hysek et al., 2012). Importantly, mescaline is a very weak 5-HT2A receptor ligand and high doses are needed to induce psychoactive effects in humans. However, despite its low potency, mescaline can have extraordinarily strong psychedelic effects in humans at high doses and the same is likely the case for the substances developed within the present invention although 10-20-fold higher potency is also possible in some compounds, to be evaluated in detail clinically. Key results of pharmacological profiling of the compounds described herein were: […]
# [8] = humans, cited from earlier work
# [9] = biological target: T2, 5-HT1A receptor (Homo sapiens, UniProt P08908); conditions: background art; cited from earlier work
# T2 sequence (P08908 1-422): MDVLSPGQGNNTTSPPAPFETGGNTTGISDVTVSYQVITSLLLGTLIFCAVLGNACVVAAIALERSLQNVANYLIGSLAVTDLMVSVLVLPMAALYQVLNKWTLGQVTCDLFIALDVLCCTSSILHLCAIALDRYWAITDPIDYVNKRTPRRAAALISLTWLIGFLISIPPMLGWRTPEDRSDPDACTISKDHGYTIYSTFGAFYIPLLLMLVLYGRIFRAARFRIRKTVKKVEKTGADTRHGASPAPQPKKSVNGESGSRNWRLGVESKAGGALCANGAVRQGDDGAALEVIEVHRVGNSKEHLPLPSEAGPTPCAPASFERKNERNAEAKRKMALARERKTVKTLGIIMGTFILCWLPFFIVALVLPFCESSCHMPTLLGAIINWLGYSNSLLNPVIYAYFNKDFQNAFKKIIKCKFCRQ
# [10] = biological target: T3, α2A receptors (Homo sapiens, UniProt P08913); conditions: background art; cited from earlier work
# T3 sequence (P08913 1-465): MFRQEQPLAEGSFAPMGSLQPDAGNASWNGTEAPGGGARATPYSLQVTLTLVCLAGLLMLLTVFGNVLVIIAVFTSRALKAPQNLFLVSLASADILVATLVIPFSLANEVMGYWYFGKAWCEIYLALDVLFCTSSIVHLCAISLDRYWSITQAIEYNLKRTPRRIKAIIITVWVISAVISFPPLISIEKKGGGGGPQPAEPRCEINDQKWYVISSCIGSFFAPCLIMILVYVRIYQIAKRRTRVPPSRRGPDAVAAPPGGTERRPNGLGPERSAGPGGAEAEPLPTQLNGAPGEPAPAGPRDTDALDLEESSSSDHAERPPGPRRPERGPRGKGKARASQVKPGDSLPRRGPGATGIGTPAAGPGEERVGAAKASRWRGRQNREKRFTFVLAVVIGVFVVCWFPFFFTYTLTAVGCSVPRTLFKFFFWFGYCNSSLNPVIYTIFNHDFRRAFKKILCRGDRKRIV
# [11] = biological target: T1, serotonin 5-HT2A receptor; conditions: background art; cited from earlier work
# [12] = test system: dopaminergic receptors; assay: Binding to dopaminergic receptors (in vitro profiling); conditions: in contrast to LSD
# Sequence of 5-HT2A receptor (P28223 whole entry): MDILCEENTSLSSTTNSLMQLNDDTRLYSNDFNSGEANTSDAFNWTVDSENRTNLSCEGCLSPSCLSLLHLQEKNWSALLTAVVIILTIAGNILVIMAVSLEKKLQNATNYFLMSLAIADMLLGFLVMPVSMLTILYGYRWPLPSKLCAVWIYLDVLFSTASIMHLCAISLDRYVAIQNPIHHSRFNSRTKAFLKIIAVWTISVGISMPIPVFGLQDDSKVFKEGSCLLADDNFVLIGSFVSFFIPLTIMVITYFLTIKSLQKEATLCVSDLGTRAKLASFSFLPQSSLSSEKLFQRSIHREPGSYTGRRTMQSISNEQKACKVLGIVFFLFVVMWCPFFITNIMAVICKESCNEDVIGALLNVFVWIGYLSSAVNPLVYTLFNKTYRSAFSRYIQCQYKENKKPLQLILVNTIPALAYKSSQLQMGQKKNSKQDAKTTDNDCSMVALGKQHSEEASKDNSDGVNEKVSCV
# Sequence of D2 receptors (P14416 whole entry): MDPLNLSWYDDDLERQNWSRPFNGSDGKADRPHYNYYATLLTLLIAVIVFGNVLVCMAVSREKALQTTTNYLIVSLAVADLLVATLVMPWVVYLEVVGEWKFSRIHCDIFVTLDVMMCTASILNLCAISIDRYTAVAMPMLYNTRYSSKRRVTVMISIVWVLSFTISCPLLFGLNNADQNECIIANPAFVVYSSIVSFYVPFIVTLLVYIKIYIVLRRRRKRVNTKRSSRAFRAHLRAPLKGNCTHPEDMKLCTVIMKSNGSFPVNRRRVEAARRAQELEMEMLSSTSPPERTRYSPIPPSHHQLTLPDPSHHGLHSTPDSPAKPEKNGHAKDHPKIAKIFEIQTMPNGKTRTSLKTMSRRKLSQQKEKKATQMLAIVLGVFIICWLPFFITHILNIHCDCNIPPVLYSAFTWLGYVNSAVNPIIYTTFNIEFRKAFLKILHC
# Sequence of 5-HT transporter (SERT) (P31645 whole entry): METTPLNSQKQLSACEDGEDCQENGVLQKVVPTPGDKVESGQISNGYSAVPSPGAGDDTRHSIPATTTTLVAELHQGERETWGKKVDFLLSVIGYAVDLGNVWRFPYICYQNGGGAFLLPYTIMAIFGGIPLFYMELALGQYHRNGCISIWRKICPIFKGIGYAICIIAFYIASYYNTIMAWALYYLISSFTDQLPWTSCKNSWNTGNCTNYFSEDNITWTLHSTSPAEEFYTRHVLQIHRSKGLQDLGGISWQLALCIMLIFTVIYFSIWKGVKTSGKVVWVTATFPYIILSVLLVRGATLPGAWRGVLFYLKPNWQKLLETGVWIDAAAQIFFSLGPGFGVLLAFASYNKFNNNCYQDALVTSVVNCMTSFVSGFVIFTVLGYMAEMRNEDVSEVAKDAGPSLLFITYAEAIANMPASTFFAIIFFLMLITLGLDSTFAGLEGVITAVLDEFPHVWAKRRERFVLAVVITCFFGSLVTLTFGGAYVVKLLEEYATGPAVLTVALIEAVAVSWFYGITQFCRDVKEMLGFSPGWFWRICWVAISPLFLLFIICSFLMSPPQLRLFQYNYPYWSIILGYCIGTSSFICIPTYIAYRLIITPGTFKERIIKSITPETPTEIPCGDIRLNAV
# T1 sequence (P28223 whole entry): as the sequence (P28223 whole entry) above
smiles,measurement,setting,value
"COc1cc(CCN)cc(OC)c1OC(F)F.Cl [DFM, 4-Difluoromethoxy-3,5-dimethoxyphenethylamine hydrochloride]",potency (in words),[1],relatively potent
"CN(C)CCc1c[nH]c2ccccc12 [DMT, N,N-dimethyltryptamine]",agonism / stimulation of the 5-HT2A receptor (in words),[2],agonists
"CCN(CC)C(=O)[C@@H]1C=C2c3cccc4[nH]cc(c34)C[C@H]2N(C)C1 [LSD, lysergic acid diethylamide]",agonism / stimulation of the 5-HT2A receptor (in words),[2],agonists; also recorded: potently stimulates
same,affinity / activity at D2 receptors (in words),[3],has activity
CN(C)CCc1c[nH]c2cccc(O)c12 [Psilocin],agonism / stimulation of the 5-HT2A receptor (in words),[2],stimulates
same,interaction with / inhibition of SERT (in words),[4],inhibits
"COc1cc(CCN)cc(OC)c1OCC(F)(F)F.Cl [TFE, 3,5-Dimethoxy-4-(2,2,2-trifluoroethoxy)phenethylamine hydrochloride]",potency (in words),[1],relatively potent
COc1cc(CCN)cc(OC)c1OC [mescaline],"eliminated in urine unchanged, fraction of the dose ingested",[5],up to two thirds
same,plasma half-life,[5],approximately 6 hours
same,agonism / stimulation of the 5-HT2A receptor (in words),[2],agonists
same,affinity / activity at D2 receptors (in words),[3],no affinity
same,interaction with / inhibition of SERT (in words),[4],do not interact
same,5-HT2A receptor binding affinity / binding potency (in words),[6],very weak
same,inhibition of monoamine transport (in words),[7],did not inhibit monoamine transport
same,subjective effects last (duration),[8]; dose-dependently,10 to 16 h
same,subjective effects appear (onset),[8]; psychoactive doses,≤ 30 min
same,subjective effects peak,[8]; psychoactive doses,4 h
same,doses needed to induce a full psychedelic experience,[8],200 to 800 mg
same,binding to 5-HT1A receptor (in words),[9],rather low concentration range
same,binding to α2A receptors (in words),[10],rather low concentration range
same,binding to 5-HT2A receptor (in words),[11],rather low concentration range
same,binding to dopaminergic receptors (in words),[12],did not relevantly bind
